Measured values taken from US9328095B2, “Heteroaryl linked quinolinyl modulators of RORgammat” (Janssen Pharmaceutica NV, priority 2013, dated 2016).

Legend:
[1] = target: T1, wild type human RORγt LBD fused to the DNA binding domain of the GAL4 protein (Homo sapiens, UniProt P51449); assay: RORγt reporter assay; assay type: cell-based; conditions: HEK293T cells
T1 construct: expressed in transfected cells; host or cells: HEK293T
T1 sequence (P51449 258-518): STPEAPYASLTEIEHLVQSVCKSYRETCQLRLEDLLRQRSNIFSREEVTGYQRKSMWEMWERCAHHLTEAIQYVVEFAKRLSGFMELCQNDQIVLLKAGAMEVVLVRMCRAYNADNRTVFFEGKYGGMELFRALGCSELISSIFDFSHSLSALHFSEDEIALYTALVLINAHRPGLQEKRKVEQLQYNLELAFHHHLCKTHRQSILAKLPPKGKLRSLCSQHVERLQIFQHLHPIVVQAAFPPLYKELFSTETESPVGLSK
Text: A reporter assay was used to test functional activity of RORγt modulatory compounds on transcriptional activation driven by the RORγt LBD. Cells used in the assay were co-transfected with two constructs. The first construct, pBIND-RORγt LBD, contained the wild type human RORγt LBD fused to the DNA binding domain of the GAL4 protein. The second construct, pGL4.31 (Promega Cat no. C935A), contained multiple GAL4 responsive DNA elements upstream of firefly luciferase. […] The mutant construct was called pBIND-RORγt-AF2.
The pBIND vector contains the GAL4 DNA Binding Domain (GAL4 DBD) and the renilla luciferase gene under control of the SV40 promoter. […]
The reporter assay was performed by transiently transfecting HEK293T cells with 5 μg of pBIND-RORγt LBD or pBIND-RORγt LBD-AF2 and 5 μg pGL4.31 (Promega Cat no. C935A) using Fugene 6 (Invitrogen Cat no. E2691) at a 1:6 ratio of DNA: Fugene 6 in a T-75 flask in which cells were at least 80% confluent. […] Dual Glo Luciferase Reagent (50 μL/well) was then added and firefly luciferase luminescence was read on an Envision after a ten minute incubation. Finally, Stop and Glo reagent (50 μL/well) was added and renilla luciferase luminescence was read on an Envision after a ten minute incubation. To calculate the effect of compounds on RORγt activity, the ratio of firefly to renilla luciferase was determined and plotted against compound concentration. […]

[2] = test system: IL-17 production by CD4 T cells; assay: Human Th17 assay; assay type: cell-based; conditions: 3 days
Text: The human Th17 assay tests the effect of RORγt modulatory compounds on IL-17 production by CD4 T cells under conditions which favor Th17 differentiation.
Total CD4^+ T cells were isolated from the peripheral blood mononuclear cells (PBMC) of healthy donors using a CD4^+ T cell isolation kit II, following the manufacturer's instructions (Miltenyi Biotec). Cells were resuspended in a medium of RPMI-1640 supplemented with 10% fetal bovine serum, penicillin, streptomycin, glutamate, and β-mercaptoethanol and were added to 96-well plates at 1.5×10^5 per 100 μL per well. 50 μL of compound at titrated concentrations in DMSO were added into each well at final DMSO concentration at 0.2%. Cells were incubated for 1 hour, then 50 μL of Th17 cell differentiation medium was added to each well. The final concentrations of antibodies and cytokines (R&D Systems) in differentiation medium were: 3×10^6/mL anti-CD3/CD28 beads (prepared using human T cell activation/expansion kit, Miltenyi Biotec), 10 μg/mL anti-IL4, 10 μg/mL anti-IFNγ, 10 ng/mL IL1β, 10 ng/mL IL23, 50 ng/mL IL6, 3 ng/mL TGFβ and 20 U/mL IL2. Cells were cultured at 37° C. and 5% CO2 for 3 days. Supernatants were collected and the accumulated IL-17 in culture was measured by using MULTI-SPOT® Cytokine Plate following manufacture's instruction (Meso Scale Discovery). The plate was read using Sector Imager 6000, and IL-17 concentration was extrapolated from the standard curve. The IC50s were determined by GraphPad.

[3] = target: T2, human RORγt ligand binding domain (RORγt LBD) (Homo sapiens, UniProt P51449); assay: RORγt ThermoFluor assay
T2 construct: His-tag (N); TurboTEV protease cleavage site (ENLYFQG) (N); made in house; host or cells: E. coli (pHIS1, modified pET vector)
T2 sequence (P51449 with tags, fused parts or gaps): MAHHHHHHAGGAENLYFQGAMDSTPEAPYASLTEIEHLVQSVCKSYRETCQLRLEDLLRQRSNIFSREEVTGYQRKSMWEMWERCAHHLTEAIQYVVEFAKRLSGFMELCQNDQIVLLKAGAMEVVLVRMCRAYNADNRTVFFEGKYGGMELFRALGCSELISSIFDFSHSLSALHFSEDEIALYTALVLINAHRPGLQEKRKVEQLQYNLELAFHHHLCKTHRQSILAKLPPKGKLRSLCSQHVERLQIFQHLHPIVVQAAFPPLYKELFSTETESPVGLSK
Protocol: This approach is applicable to a wide variety of systems, and rigorous in theoretical interpretation through quantitation of equilibrium binding constants (KD).
The shift in the melting point described as a ΔTm is proportional to the concentration and affinity of the ligand. The compound potency may be compared as a rank order of either ΔTm values at a single compound concentration or in terms of KD values, estimated from concentration response curves.
ThermoFluor® experiments were carried out using instruments owned by Janssen Research and Discovery, L.L.C. through its acquisition of 3-Dimensional Pharmaceuticals, Inc. 1,8-ANS (Invitrogen) was used as a fluorescent dye. […]
Bar-coded assay plates are robotically loaded onto a thermostatically controlled PCR-type thermal block and then heated at a typical ramp-rate of 1° C./min for all experiments. Fluorescence was measured by continuous illumination with UV light (Hamamatsu LC6) supplied via fiber optic and filtered through a band-pass filter (380-400 nm; >6 OD cutoff). Fluorescence emission of the entire 384-well plate was detected by measuring light intensity using a CCD camera (Sensys, Roper Scientific) filtered to detect 500±25 nm, resulting in simultaneous and independent readings of all 384 wells. […]

Row | SMILES | IC50 [2] [µM] | further results
1 | CCN(CC)c1nc2ccc(C(O)(c3ccccn3)c3cncn3C)cc2c(C#N)c1Oc1ccccc1 (single isomer, unassigned) [Example 5c] | – | inhibition at 6 µM ([1]; HEK-293T, 6 μM): 103%
2 | Cn1cncc1C(O)(c1ccc(C(F)(F)F)nc1)c1ccc2nc(N3CCCC3)c(Oc3ccc(C#N)cc3)c(Cl)c2c1 (stereo not drawn) [Example 2a, 4-((4-Chloro-6-(hydroxy(1-methyl-1H-imidazol-5-yl)(6-(trifluoromethyl)pyridin-3-yl)methyl)-2-(pyrrolidin-1-yl)quinolin-3-yl)oxy)benzonitrile] | 0.088 | –
3 | Cn1cncc1C(O)(c1ccc(C(F)(F)F)nc1)c1ccc2nc(N3CCCC3)c(Oc3ccc(C#N)cc3)c(Cl)c2c1 (stereo not drawn) [Example 2b] | 0.32 | –
4 | Cn1cncc1C(O)(c1ccc(C(F)(F)F)nc1)c1ccc2nc(N3CCCC3)c(Oc3ccc(C#N)cc3)c(Cl)c2c1 (stereo not drawn) [Example 2c] | 0.1 | –
5 | CC(C)(C)OC(=O)N(c1ccccc1)c1c(Cl)nc2ccc(C(O)(c3cccnc3)c3cccc(Cl)c3)cc2c1Cl (stereo not drawn) [Example 7, tert-Butyl (2,4-dichloro-6-((3-chlorophenyl)(hydroxy)(pyridin-3-yl)methyl)quinolin-3-yl)(phenyl)carbamate] | – | Kd [3]: 23 µM; IC50 [1]: 1.4 µM
